Holding throughout (assay type): cell-based
Assay [1] concerns the target T1, GLP-1 receptor (Homo sapiens, UniProt P43220). Put plainly: HitHunter cAMP assay, GLP-1 receptor. The following applies: for Emax: read-out: Emax GLP-1R. On the technique in general: Changes in cAMP serve as a functional read-out for many G protein-coupled receptors.
For assay [2], the target named is T2, GIP receptor (Homo sapiens, UniProt P48546).
T2 sequence (P48546 22-466): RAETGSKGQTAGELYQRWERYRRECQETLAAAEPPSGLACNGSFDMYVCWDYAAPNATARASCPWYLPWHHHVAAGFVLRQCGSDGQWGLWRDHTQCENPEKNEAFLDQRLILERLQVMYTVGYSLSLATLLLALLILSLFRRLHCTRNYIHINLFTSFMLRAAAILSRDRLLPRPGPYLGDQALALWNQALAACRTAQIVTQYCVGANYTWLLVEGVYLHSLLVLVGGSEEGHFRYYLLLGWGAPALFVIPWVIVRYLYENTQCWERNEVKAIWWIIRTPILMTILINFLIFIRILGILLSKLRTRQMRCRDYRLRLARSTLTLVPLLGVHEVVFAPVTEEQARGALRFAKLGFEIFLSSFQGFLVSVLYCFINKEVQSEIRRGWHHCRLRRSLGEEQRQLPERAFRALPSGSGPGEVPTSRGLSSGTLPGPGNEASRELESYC
Put plainly: HitHunter cAMP assay, GIP receptor. The conditions noted are these: for Emax: read-out: Emax GIP-1R.

Assay [3] concerns the target T1, GLP-1 receptor. As to the kind of experiment: PathHunter β-arrestin assay, GLP-1 receptor. Also on record: host or cells: PathHunter CHO-K1 GLP1R β-Arrestin Cell Line.
Assay [4] has as its target T2, GIP receptor. As to the kind of experiment: PathHunter β-arrestin assay, GIP receptor. Details: host or cells: PathHunter CHO-K1 GIPR β-Arrestin Cell Line.
Setting [5] is: CHO cells stably expressing human GLP-1 receptor, cAMP accumulation, 30 min, read-out: EC50 GLP-1R.
[6] abbreviates: CHO cells, cAMP, normalized to maximum signal from GLP-1 (high) and DMSO (low).
[7] abbreviates: CHO cells stably expressing GIP receptor, cAMP accumulation, 30 min, read-out: EC50 GIP-1R.
Where [8] appears, read: CHO cells, cAMP, normalized to maximum signal from GIP (high) and DMSO (low).
[9] abbreviates: β-arrestin-2 recruitment, PathHunter CHO-K1 GLP1R β-Arrestin Cell Line, 90 min at 37° C., normalized to GLP-1, read-out: GLP-1R β Arrestin EC50.
[10] abbreviates: β-arrestin-2 recruitment, PathHunter CHO-K1 GIPR β-Arrestin Cell Line, 90 min at 37° C., normalized to GIP, read-out: GIPR β Arrestin EC50.

Read-outs that look alike come from different tables or passages of the source. *1 amine or outer side, *2 acyl side, *3 side chain or, on linkers, in order; H or OH if unused. Where a SMILES comes first, the peptide text is derived from it. Side-chain parts run from the residue outwards. [ ]: non-standard residue; d: D form. The star is where a group is joined. Isobutyryl(2-(3-CN-5-F-Ph)) = CC(C)(C(=O)*)c1cc(F)cc(C#N)c1; C20 diacid = O=C(O)CCCCCCCCCCCCCCCCCCC(=O)*; Phenylacetyl(3-Cl) = O=C(Cc1cccc(Cl)c1)*; γGlu = O=C(O)[C@H](CCC(=O)[*:2])N[*:1]; NH(4-Me-phenyl) = Cc1ccc(N*)cc1; X14 = CC(C)(C(=O)*)n1cc(Br)cn1; AEEA = NCCOCCOCC(=O)O; Aib = CC(C)(N)C(=O)O; CO = O=C([*:1])[*:2]; GABA = NCCCC(=O)O; βAla = NCCC(=O)O

T1 sequence (P43220 24-463): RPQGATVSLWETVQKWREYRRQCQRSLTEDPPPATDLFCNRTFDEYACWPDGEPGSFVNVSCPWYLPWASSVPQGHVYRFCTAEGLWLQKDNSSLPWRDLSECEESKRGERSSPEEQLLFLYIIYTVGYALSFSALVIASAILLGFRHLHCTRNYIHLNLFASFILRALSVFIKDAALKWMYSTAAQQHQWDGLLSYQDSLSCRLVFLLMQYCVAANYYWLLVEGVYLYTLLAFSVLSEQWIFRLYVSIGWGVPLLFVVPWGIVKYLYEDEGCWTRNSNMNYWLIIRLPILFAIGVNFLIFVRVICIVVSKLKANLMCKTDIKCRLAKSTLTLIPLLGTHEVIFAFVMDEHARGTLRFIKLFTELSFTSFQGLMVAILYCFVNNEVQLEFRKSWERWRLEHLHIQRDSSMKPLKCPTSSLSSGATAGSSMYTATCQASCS

The EC50 is the concentration giving half of the maximal effect. A word on the Emax: it is the greatest response seen or fitted, relative to the assay's reference. Consider `CC[C@H](C)[C@H](NC(=O)[C@H](CC(C)C)NC(=O)[C@H](Cc1c[nH]c2ccccc12)NC(=O)[C@H](CCC(N)=O)NC(=O)[C@@H](NC(=O)[C@H](Cc1ccccc1)NC(=O)[C@H](C)NC(=O)[C@H](CCCCNC(=O)COCCOCCNC(=O)COCCOCCNC(=O)CC[C@H](NC(=O)CCCCCCCCCCCCCCCCCCC(=O)O)C(=O)O)NC(=O)[C@H](CCC(N)=O)NC(=O)[C@H](C)NC(=O)[C@@H](NC(=O)[C@H](CCCCN)NC(=O)[C@H](CC(=O)O)NC(=O)[C@H](CC(C)C)NC(=O)C(C)(C)NC(=O)[C@@H](NC(=O)[C@H](CO)NC(=O)[C@H](Cc1ccc(O)cc1)NC(=O)[C@H](CC(=O)O)NC(=O)[C@H](CO)NC(=O)[C@@H](NC(=O)[C@H](Cc1ccccc1)NC(=O)[C@@H](NC(=O)CNC(=O)[C@H](CCC(=O)O)NC(=O)CCNC(=O)CNC(=O)Cc1cccc(Cl)c1)[C@@H](C)O)[C@@H](C)O)[C@@H](C)CC)[C@@H](C)CC)C(C)C)C(=O)N[C@@H](C)C(=O)NCC(=O)NCC(=O)N1CCC[C@H]1C(=O)N[C@@H](CO)C(=O)N[C@@H](CO)C(=O)NCC(=O)N[C@@H](C)C(=O)N1CCC[C@H]1C(=O)N1CCC[C@H]1C(=O)N1CCC[C@H]1C(=O)N[C@@H](CO)C(N)=O` [Compound 230] ({Phenylacetyl(3-Cl)}-G[βAla]EGTFTSDYSI[Aib]LDKIAQK([AEEA-AEEA-γGlu-C20 diacid])AFVQWLIAGGPSSGAPPPS-NH2), for which the EC50 at GLP-1 receptor [1] was 0.001 to 0.01 µM; on GIP receptor [2], 0.01 to 0.1 µM; on GLP-1 receptor [3] it was above 1 µM; on GIP receptor [4], above 1 µM. For the same molecule, the values for the Emax on GLP-1 receptor [1] (CHO) and at GIP receptor [2] (CHO) were 99% and 96%, respectively.
Turning to `CC[C@H](C)[C@H](NC(=O)[C@H](CC(C)C)NC(=O)[C@H](Cc1c[nH]c2ccccc12)NC(=O)[C@H](CCC(N)=O)NC(=O)[C@@H](NC(=O)[C@H](Cc1ccccc1)NC(=O)[C@H](C)NC(=O)[C@H](CCCCNC(=O)COCCOCCNC(=O)COCCOCCNC(=O)CC[C@H](NC(=O)CCCCCCCCCCCCCCCCCCC(=O)O)C(=O)O)NC(=O)[C@H](CCC(N)=O)NC(=O)[C@H](C)NC(=O)[C@@H](NC(=O)[C@H](CCCCN)NC(=O)[C@H](CC(=O)O)NC(=O)[C@H](CC(C)C)NC(=O)C(C)(C)NC(=O)[C@@H](NC(=O)[C@H](CO)NC(=O)[C@H](Cc1ccc(O)cc1)NC(=O)[C@H](CC(=O)O)NC(=O)[C@H](CO)NC(=O)[C@@H](NC(=O)[C@H](Cc1ccccc1)NC(=O)[C@@H](NC(=O)CNC(=O)[C@H](CCC(=O)O)NC(=O)CCNC(=O)C(C)(C)n1cc(Br)cn1)[C@@H](C)O)[C@@H](C)O)[C@@H](C)CC)[C@@H](C)CC)C(C)C)C(=O)N[C@@H](C)C(=O)NCC(=O)NCC(=O)N1CCC[C@H]1C(=O)N[C@@H](CO)C(=O)N[C@@H](CO)C(=O)NCC(=O)N[C@@H](C)C(=O)N1CCC[C@H]1C(=O)N1CCC[C@H]1C(=O)N1CCC[C@H]1C(=O)N[C@@H](CO)C(N)=O` [Compound 131] ({X14-βAla}-EGTFTSDYSI[Aib]LDKIAQK([AEEA-AEEA-γGlu-C20 diacid])AFVQWLIAGGPSSGAPPPS-NH2), the EC50 at GLP-1 receptor [1] (setting [5]) was 0.0001 to 0.001 µM; at GIP receptor [2] (setting [7]) it was 0.01 to 0.1 µM; on GLP-1 receptor [3] (setting [9]), above 1 µM; at GIP receptor [4] (setting [10]), above 1 µM. Moreover, the figures for the Emax at GLP-1 receptor [1] (setting [6]) and on GIP receptor [2] (setting [8]) were 102% and 96%, respectively.
`CC[C@H](C)[C@H](NC(=O)[C@H](CC(C)C)NC(=O)[C@H](Cc1c[nH]c2ccccc12)NC(=O)[C@H](CCC(N)=O)NC(=O)[C@@H](NC(=O)[C@H](Cc1ccccc1)NC(=O)[C@H](C)NC(=O)[C@H](CCCCNC(=O)COCCOCCNC(=O)COCCOCCNC(=O)CC[C@H](NC(=O)CCCCCCCCCCCCCCCCCCC(=O)O)C(=O)O)NC(=O)[C@H](CCC(N)=O)NC(=O)[C@H](C)NC(=O)[C@@H](NC(=O)[C@H](CCCCN)NC(=O)[C@H](CC(=O)O)NC(=O)[C@H](CC(C)C)NC(=O)C(C)(C)NC(=O)[C@@H](NC(=O)[C@H](CO)NC(=O)[C@H](Cc1ccc(O)cc1)NC(=O)[C@H](CC(=O)O)NC(=O)[C@H](CO)NC(=O)[C@@H](NC(=O)[C@H](Cc1ccccc1)NC(=O)[C@@H](NC(=O)CNC(=O)[C@H](CCC(=O)O)NC(=O)CCNC(=O)C(C)(C)c1cc(F)cc(C#N)c1)[C@@H](C)O)[C@@H](C)O)[C@@H](C)CC)[C@@H](C)CC)C(C)C)C(=O)N[C@@H](C)C(=O)NCC(=O)NCC(=O)N1CCC[C@H]1C(=O)N[C@@H](CO)C(=O)N[C@@H](CO)C(=O)NCC(=O)N[C@@H](C)C(=O)N1CCC[C@H]1C(=O)N1CCC[C@H]1C(=O)N1CCC[C@H]1C(=O)N[C@@H](CO)C(=O)O` [Compound 169] ({Isobutyryl(2-(3-CN-5-F-Ph))-βAla}-EGTFTSDYSI[Aib]LDKIAQK([AEEA-AEEA-γGlu-C20 diacid])AFVQWLIAGGPSSGAPPPS-OH): the EC50 on GLP-1 receptor [1] (setting [5]) was 0.0001 to 0.001 µM; at GIP receptor [2] (setting [7]) it was 0.001 to 0.01 µM; on GLP-1 receptor [3] (setting [9]), above 1 µM; on GIP receptor [4] (setting [10]), below 1 µM. The Emax worked out at 108% at GLP-1 receptor [1] (setting [6]) and 110% at GIP receptor [2] (setting [8]).
As for `CC[C@H](C)[C@H](NC(=O)[C@H](CC(C)C)NC(=O)[C@H](Cc1c[nH]c2ccccc12)NC(=O)[C@H](CCC(N)=O)NC(=O)[C@@H](NC(=O)[C@H](Cc1ccccc1)NC(=O)[C@H](C)NC(=O)[C@H](CCCCNC(=O)COCCOCCNC(=O)COCCOCCNC(=O)CC[C@H](NC(=O)CCCCCCCCCCCCCCCCCCC(=O)O)C(=O)O)NC(=O)[C@H](CCC(N)=O)NC(=O)[C@H](C)NC(=O)[C@@H](NC(=O)[C@H](CCCCN)NC(=O)[C@H](CC(=O)O)NC(=O)[C@H](CC(C)C)NC(=O)C(C)(C)NC(=O)[C@@H](NC(=O)[C@H](CO)NC(=O)[C@H](Cc1ccc(O)cc1)NC(=O)[C@H](CC(=O)O)NC(=O)[C@H](CO)NC(=O)[C@@H](NC(=O)[C@H](Cc1ccccc1)NC(=O)[C@@H](NC(=O)CNC(=O)[C@H](CCC(=O)O)NC(=O)CCCNC(=O)CNC(=O)Nc1ccc(C)cc1)[C@@H](C)O)[C@@H](C)O)[C@@H](C)CC)[C@@H](C)CC)C(C)C)C(=O)N[C@@H](C)C(=O)NCC(=O)NCC(=O)N1CCC[C@H]1C(=O)N[C@@H](CO)C(=O)N[C@@H](CO)C(=O)NCC(=O)N[C@@H](C)C(=O)N1CCC[C@H]1C(=O)N1CCC[C@H]1C(=O)N1CCC[C@H]1C(=O)N[C@@H](CO)C(N)=O` [Compound 271] ({NH(4-Me-phenyl)-CO}-G[GABA]EGTFTSDYSI[Aib]LDKIAQK([AEEA-AEEA-γGlu-C20 diacid])AFVQWLIAGGPSSGAPPPS-NH2), the EC50 was 0.001 to 0.01 µM at GLP-1 receptor [1], 0.001 to 0.01 µM at GIP receptor [2], above 1 µM at GLP-1 receptor [3] and below 1 µM on GIP receptor [4]. For the same molecule, the values for the Emax on GLP-1 receptor [1] (CHO) and on GIP receptor [2] (CHO) were 94% and 105%, respectively.

Values taken from US12281149B2, “Modulators of G-protein coupled receptors” (priority 2021, dated 2025).
